These compounds were tested on miR-133 (assay: miR-133 biosensor luciferase assay in C2C12 myoblast clones). Conditions: C2C12 clone A10, 48 hours in growth media; TGF-β 10 ng/mL, Insulin 850 nM, IBMX 0.5 mM, AICAR 0.5 mM, Dexamethasone 1.
Type: cell-based
Excerpt: The design of the miR-133 biosensor is based on the principle that recognition of microRNA target sites in 3′UTR by microRNA/RISC leads to the inhibition of the translation of the target mRNAs. An artificial 3′UTR containing optimized miR-133 target sites in tandem was designed and cloned downstream of the open reading frames of firefly luciferases and GFP, which in together function as miR-133 biosensor (FIG. 9A), in a lentiviral vector. C2C12 myoblast clones were infected with lentiviruses carrying the miR-133 biosensor and selected for stable expression of the reporter construct. Activity of potential modulators or miR-133 is tested and read as a reverse correlation between miR-133 functionality and luciferase/GFP intensities. The construct can be used for live-cell imaging (in vitro and in vivo) and allows real-time detection.
Two miR-133 biosensor plasmids were constructed—pCMV-FireflyLuc_miR133TS_EF1_Puro and pCMV-RenillaLuc—133TS_EF1_Puro. In the pCMV-FireflyLuc—133TS_EF1_Puro plasmid, five tandem miR-133 target sites (miR133TS; 5′-[…]-3′, SEQ ID NO:22) was cloned downstream of a firefly luciferase ORF (with a stop codon), which is driven by a CMV promoter. These miR-133 target sites in whole serve as an artificial 3′ UTR of firefly luciferase transcript. The “GGACCAAA” sequence in the miR-133 target sites is complementary to the nucleotide positions 1-8 in miR-133a and miR-133b. The “TAGCTGGTTG” sequence in the miR-133 target sites is complementary to the nucleotide positions 13-22 in miR-133a and miR-133b. The remaining sequence “CCA” sequence in the middle will not anneal to the miR-133a or miR-133b, which will form a “bulge” structure when miR-133a/b anneal to the RNA transcript of miR-133 target sites. This fireflyLuc_miR133TS cassette was further cloned into a lentivirus backbone. In the pCMV-RenillaLuc—133TS_EF1_Puro plasmid, the firefly luciferase ORF was replaced by a renilla luciferase ORF. pCMV-FireflyLuc_miR133TS_EF1_Puro and pCMV-RenillaLuc—133TS_EF1_Puro plasmids were used to generate lentivirus particles in 293T cells, which were used to infect C2C12 myoblasts. Infected C2C12 myoblasts were selected by Puromycin (2 mg/L) and clonally expanded. C2C12 clones, C11 and C3, were used in subsequent experiments.
In one experiment, a C2C12 clone C11 (25,000 cells per well on 24-well plates), was transfected with 0.5 nM and 5 nM miR-133 mimetics (Life Technologies/Ambion), which can be processed into mature miR-133 in cells. […] Both experiments were performed with 6 replicates and Z-scores above 0.5 were achieved.
In one experiment, a C2C12 clone (A10; 25,000 cells per well in 24-well plates) was treated with drugs and biologics for 48 hours in growth media. […]

effect on miR-133 by luciferase assays	Compound
enhancers of miR-133	CC(C)Cn1c(=O)n(C)c(=O)c2[nH]cnc21 [IBMX, 3-isobutyl-1-methylxanthine, reference compound]
inhibitors of miR-133	TGF-β
enhancers of miR-133	NC(=O)c1ncn([C@@H]2O[C@H](CO)[C@@H](O)[C@H]2O)c1N [AICAR, 5′ amino-1-βD-ribofuranosyl-imidazole-4-carboxamide, reference compound]
inhibitors of miR-133	Insulin

Reference: patent US9018188B2, “MicroRNA inhibitors” (Ottawa Hospital Research Institute, priority 2011, dated 2015)
